Data from patent US8519137B2, “Heteroaryl amides useful as inhibitors of voltage-gated sodium channels” (Vertex Pharmaceuticals Incorporated, priority 2007, dated 2013).
pIC50: −log10 of the molar value. Read-outs that look alike come from different tables or passages of the source.

Tests used:
NaV1.3 [1] = target: T1, NaV1.3 (Homo sapiens, UniProt Q9NY46); assay: VIPR optical membrane potential assay, NaV 1.3 inhibition; format: cell-based; design: expressed in transfected cells; host or cells: HEK293; conditions: activity against NaV 1.3 channel
Description: (§1) Compounds of the invention are useful as antagonists of voltage-gated sodium ion channels. Antagonist properties of test compounds were assessed as follows. Cells expressing the NaV of interest were placed into microtiter plates. After an incubation period, the cells were stained with fluorescent dyes sensitive to the transmembrane potential. The test compounds were added to the microtiter plate. The cells were stimulated with either a chemical or electrical means to evoke a NaV dependent membrane potential change from unblocked channels, which was detected and measured with trans-membrane potential-sensitive dyes. Antagonists were detected as a decreased membrane potential response to the stimulus. The optical membrane potential assay utilized voltage-sensitive FRET sensors described by Gonzalez and Tsien (See, Gonzalez, J. E. and R. Y. Tsien (1995) “Voltage sensing by fluorescence resonance energy transfer in single cells” Biophys J 69(4): 1272-80, and Gonzalez, J. E. and R. Y. Tsien (1997) “Improved indicators of cell membrane potential that use fluorescence resonance energy transfer” Chem Biol 4(4): 269-77) in combination with instrumentation for measuring fluorescence changes such as the Voltage/Ion Probe Reader (VIPR®) (See, Gonzalez, J. E., K. Oades, et al. (1999) “Cell-based assays and instrumentation for screening ion-channel targets” Drug Discov Today 4(9): 431-439).
(§2) C) VIPR® Optical Membrane Potential Assay Method with Electrical Stimulation
(§3) The following is an example of how NaV1.3 inhibition activity is measured using the optical membrane potential method#2. Other subtypes are performed in an analogous mode in a cell line expressing the NaV of interest.
HEK293 cells stably expressing NaV1.3 are plated into 96-well microtiter plates. After an appropriate incubation period, the cells are stained with the voltage sensitive dyes CC2-DMPE/DiSBAC2(3) as follows.
Reagents: • 100 mg/mL Pluronic F-127 (Sigma #P2443), in dry DMSO • 10 mM DiSBAC2(3) (Aurora #00-100-010) in dry DMSO • 10 mM CC2-DMPE (Aurora #00-100-008) in dry DMSO • 200 mM ABSC1 in H2O • Hank's Balanced Salt Solution (Hyclone #SH30268.02) supplemented with 10 mM HEPES (Gibco #15630-080)
2×CC2-DMPE=20 μM CC2-DMPE: 10 mM CC2-DMPE is vortexed with an equivalent volume of 10% pluronic, followed by vortexing in required amount of HBSS containing 10 mM HEPES. Each cell plate will require 5 mL of 2×CC2-DMPE. 50 μL of 2×CC2-DMPE is to wells containing washed cells, resulting in a 10 μM final staining concentration. The cells are stained for 30 minutes in the dark at RT.
2×DISBAC2(3) with ABSC1=6 μM DISBAC2(3) and 1 mM ABSC1: The required amount of 10 mM DISBAC2(3) is added to a 50 ml conical tube and mixed with 1 μL 10% pluronic for each mL of solution to be made and vortexed together. Then HBSS/HEPES is added to make up 2× solution. Finally, the ABSC1 is added.
The 2× DiSBAC2(3) solution can be used to solvate compound plates. Note that compound plates are made at 2× drug concentration. Wash stained plate again, leaving residual volume of 50 μL. Add 50 uL/well of the 2× DiSBAC2(3) w/ABSC1. Stain for 30 minutes in the dark at RT.
The electrical stimulation instrument and methods of use are described in ION Channel Assay Methods PCT/US01/21652, herein incorporated by reference. The instrument comprises a microtiter plate handler, an optical system for exciting the coumarin dye while simultaneously recording the coumarin and oxonol emissions, a waveform generator, a current-or voltage-controlled amplifier, and a device for inserting electrodes in well. Under integrated computer control, this instrument passes user-programmed electrical stimulus protocols to cells within the wells of the microtiter plate. […]

NaV1.8 [2] = target: T2, NaV1.8 (Homo sapiens, UniProt Q9Y5Y9); assay: Optical membrane potential assay, NaV 1.8 inhibition; format: cell-based; conditions: activity against NaV 1.8 channel
Description: as §1, §2, §3
(§4) The electrical stimulation instrument and methods of use are described in ION Channel Assay Methods PCT/US01/21652, herein incorporated by reference. The instrument comprises a microtiter plate handler, an optical system for exciting the coumarin dye while simultaneously recording the coumarin and oxonol emissions, a waveform generator, a current-or voltage-controlled amplifier, and a device for inserting electrodes in well. Under integrated computer control, this instrument passes user-programmed electrical stimulus protocols to cells within the wells of the microtiter plate.
(§5) Assay Protocol • 1 Insert or use electrodes into each well to be assayed. • 2. Use the current-controlled amplifier to deliver stimulation wave pulses for 3 s. Two seconds of pre-stimulus recording are performed to obtain the un-stimulated intensities. Five seconds of post-stimulation recording are performed to examine the relaxation to the resting state.
(§6) Data are analyzed and reported as normalized ratios of background-subtracted emission intensities measured in the 460 nm and 580 nm channels. Background intensities are then subtracted from each assay channel. Background intensities are obtained by measuring the emission intensities during the same time periods from identically treated assay wells in which there are no cells. The response as a function of time is then reported as the ratios obtained using the following formula: […]
(§7) The data is further reduced by calculating the initial (Ri) and final (Rf) ratios. These are the average ratio values during part or all of the pre-stimulation period, and during sample points during the stimulation period. The response to the stimulus , ρ=Rf/Ri is then calculated.
(§8) Control responses are obtained by performing assays in the presence of a compound with the desired properties (positive control) and in the absence of pharmacological agents (negative control). Responses to the negative (N) and positive (P) controls are calculated as above. The activity A of the assay well relative to positive and negative controls is defined as: […]
Target sequence in this assay (Q9Y5Y9 whole entry): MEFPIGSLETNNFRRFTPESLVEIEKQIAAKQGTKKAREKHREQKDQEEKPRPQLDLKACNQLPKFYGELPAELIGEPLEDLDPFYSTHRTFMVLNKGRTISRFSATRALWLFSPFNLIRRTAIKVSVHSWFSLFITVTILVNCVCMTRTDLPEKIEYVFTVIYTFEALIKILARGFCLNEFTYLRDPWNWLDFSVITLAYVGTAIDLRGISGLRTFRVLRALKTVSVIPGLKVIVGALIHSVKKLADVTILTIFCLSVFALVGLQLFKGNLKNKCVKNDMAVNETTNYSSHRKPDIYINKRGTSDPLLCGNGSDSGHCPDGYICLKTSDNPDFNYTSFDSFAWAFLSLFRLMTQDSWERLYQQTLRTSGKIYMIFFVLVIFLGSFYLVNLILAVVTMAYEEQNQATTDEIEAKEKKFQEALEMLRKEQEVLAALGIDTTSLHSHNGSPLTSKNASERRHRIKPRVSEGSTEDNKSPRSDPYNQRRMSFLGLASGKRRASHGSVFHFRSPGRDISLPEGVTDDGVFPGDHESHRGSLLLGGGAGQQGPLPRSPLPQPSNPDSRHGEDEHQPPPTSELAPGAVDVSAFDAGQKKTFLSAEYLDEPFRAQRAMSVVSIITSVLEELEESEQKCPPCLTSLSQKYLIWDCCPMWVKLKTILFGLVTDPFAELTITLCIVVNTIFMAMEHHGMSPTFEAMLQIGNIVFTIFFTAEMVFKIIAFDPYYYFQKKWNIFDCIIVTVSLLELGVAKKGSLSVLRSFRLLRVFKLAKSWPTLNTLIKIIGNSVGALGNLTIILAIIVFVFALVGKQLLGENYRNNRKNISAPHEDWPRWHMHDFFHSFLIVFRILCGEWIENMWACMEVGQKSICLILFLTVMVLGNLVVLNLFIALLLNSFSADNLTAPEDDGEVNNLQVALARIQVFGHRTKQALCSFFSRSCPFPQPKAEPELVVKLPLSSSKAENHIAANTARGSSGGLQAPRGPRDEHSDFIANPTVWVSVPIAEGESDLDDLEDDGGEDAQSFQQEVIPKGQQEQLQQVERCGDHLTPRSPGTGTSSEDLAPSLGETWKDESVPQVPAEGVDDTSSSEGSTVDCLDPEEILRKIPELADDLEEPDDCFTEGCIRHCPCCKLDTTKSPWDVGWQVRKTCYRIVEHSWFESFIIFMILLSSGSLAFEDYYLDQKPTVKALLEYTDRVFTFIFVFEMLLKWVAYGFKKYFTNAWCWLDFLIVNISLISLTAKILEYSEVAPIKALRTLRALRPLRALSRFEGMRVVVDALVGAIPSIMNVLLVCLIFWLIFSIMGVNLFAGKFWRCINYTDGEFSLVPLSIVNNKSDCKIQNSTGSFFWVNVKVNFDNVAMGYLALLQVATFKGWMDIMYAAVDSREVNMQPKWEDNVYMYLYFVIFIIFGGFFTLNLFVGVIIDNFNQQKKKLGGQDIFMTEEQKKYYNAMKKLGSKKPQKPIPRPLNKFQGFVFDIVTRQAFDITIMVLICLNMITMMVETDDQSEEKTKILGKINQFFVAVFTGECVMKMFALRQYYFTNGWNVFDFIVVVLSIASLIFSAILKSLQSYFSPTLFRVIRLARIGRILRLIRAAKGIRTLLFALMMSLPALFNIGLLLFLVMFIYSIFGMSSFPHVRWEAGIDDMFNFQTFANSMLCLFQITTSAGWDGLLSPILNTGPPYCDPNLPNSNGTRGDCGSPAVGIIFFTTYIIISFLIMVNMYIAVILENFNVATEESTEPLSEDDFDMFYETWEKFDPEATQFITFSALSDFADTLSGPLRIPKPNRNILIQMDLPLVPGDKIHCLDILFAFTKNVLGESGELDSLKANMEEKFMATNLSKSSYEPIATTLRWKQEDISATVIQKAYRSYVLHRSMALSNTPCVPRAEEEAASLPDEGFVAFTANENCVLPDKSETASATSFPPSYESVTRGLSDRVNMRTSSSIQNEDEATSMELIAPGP

NaV 1.7 channel = NaV 1.7 channel (Homo sapiens, UniProt Q15858); assay: Optical membrane potential assay, NaV 1.7 inhibition; format: cell-based; conditions: activity against NaV 1.7 channel
NaV 1.7 channel, sequence (Q15858 whole entry): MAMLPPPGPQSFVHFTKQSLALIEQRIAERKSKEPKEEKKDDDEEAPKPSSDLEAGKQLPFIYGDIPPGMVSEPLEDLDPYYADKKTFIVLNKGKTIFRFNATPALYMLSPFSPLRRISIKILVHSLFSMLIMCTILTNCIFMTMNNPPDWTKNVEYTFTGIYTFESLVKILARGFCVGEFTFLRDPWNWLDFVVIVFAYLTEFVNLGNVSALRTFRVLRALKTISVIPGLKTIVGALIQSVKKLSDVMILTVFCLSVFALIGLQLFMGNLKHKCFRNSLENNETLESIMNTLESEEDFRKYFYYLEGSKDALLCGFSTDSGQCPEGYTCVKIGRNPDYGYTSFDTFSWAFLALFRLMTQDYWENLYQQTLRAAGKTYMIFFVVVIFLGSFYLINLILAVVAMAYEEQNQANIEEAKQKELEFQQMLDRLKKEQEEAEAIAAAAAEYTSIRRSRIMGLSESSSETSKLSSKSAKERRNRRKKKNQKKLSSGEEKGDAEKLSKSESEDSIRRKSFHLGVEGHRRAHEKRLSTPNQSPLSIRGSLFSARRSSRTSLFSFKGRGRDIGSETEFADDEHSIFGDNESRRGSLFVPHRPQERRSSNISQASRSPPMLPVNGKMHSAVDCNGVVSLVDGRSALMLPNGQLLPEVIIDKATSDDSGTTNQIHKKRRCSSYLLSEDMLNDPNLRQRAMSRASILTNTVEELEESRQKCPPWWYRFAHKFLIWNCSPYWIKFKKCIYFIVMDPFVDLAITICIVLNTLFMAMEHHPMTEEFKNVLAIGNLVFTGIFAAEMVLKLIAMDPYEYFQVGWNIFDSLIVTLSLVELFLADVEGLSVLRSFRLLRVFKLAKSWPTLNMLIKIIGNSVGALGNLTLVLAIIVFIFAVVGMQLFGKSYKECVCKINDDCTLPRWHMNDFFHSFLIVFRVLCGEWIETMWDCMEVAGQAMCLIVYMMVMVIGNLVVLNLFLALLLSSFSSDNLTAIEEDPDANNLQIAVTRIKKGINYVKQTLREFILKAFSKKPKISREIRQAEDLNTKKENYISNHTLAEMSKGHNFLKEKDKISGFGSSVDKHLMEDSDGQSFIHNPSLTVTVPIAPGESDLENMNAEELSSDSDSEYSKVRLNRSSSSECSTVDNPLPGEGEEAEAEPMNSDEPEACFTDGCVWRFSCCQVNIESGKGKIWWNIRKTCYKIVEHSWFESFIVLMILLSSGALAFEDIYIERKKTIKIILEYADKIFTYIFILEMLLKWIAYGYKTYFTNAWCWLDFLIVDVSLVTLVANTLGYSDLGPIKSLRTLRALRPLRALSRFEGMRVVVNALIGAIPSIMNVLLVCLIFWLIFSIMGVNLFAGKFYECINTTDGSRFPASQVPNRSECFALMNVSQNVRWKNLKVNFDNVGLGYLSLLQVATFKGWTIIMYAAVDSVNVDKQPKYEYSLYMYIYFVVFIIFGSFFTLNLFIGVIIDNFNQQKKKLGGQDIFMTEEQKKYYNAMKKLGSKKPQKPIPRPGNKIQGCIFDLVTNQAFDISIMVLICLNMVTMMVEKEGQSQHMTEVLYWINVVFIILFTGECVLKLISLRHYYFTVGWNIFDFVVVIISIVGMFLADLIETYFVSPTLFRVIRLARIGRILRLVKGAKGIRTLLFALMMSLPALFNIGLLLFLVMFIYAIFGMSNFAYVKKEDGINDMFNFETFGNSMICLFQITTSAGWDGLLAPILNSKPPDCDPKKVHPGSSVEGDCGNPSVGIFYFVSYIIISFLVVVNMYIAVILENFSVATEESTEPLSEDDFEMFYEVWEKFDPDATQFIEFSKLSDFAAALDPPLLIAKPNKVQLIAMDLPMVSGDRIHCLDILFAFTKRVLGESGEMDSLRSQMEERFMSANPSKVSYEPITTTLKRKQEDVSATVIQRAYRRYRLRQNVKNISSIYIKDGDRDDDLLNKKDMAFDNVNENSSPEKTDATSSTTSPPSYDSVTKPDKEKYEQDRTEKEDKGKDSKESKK
Description: as §1, §2, §3, §4, §5, §6, §7, §8

NaV1.6 = NaV1.6 (Homo sapiens, UniProt Q9UQD0); conditions: read-out: TTX IC50; cited from earlier work
NaV1.3 [3] = target: T1, NaV1.3; conditions: read-out: TTX IC50; cited from earlier work
NaV1.2 = NaV1.2 (Homo sapiens, UniProt Q99250); conditions: read-out: TTX IC50; cited from earlier work
NaV1.9 = NaV1.9 (Homo sapiens, UniProt Q9UI33); conditions: read-out: TTX IC50; cited from earlier work
NaV1.8 [4] = target: T2, NaV1.8; conditions: read-out: TTX IC50; cited from earlier work
Target sequence in this assay (Q9Y5Y9 whole entry, looked up): as the sequence (Q9Y5Y9 whole entry) above

NaV1.1 = NaV1.1 (Homo sapiens, UniProt P35498); conditions: read-out: TTX IC50; cited from earlier work

| Structure (SMILES) | pIC50 (NaV1.3 [1]) | pIC50 (NaV1.8 [2]) | pIC50 (NaV 1.7 channel) | further results |
| --- | --- | --- | --- | --- |
| Cc1oc(C(C)(C)C)cc1C(=O)Nc1cccc(S(N)(=O)=O)c1 [Compound 3] | < 4.70 | > 5.70 | 4.70 to 5.00 |  |
| C[C@@H](c1ccc(F)cc1)N1CCN(Cc2oc(C(C)(C)C)cc2C(=O)Nc2cccc(S(N)(=O)=O)c2)CC1 [Compound 5] | 4.70 to 5.00 |  |  |  |
| CC(C)(C)c1cc(C(=O)Nc2cccc(S(N)(=O)=O)c2)c(CN2CCCCC2)o1 [Compound 6] | < 4.70 | 5.00 to 5.70 |  |  |
| Cc1oc(CC(C)C)c(CN2CCOCC2)c1C(=O)Nc1cccc(S(N)(=O)=O)c1 [Compound 7] | < 4.70 | 4.70 to 5.00 | 5.00 to 5.70 |  |
| Cc1oc(C(C)(C)C)c(CN2CCOCC2)c1C(=O)Nc1cccc(S(N)(=O)=O)c1 [Compound 8] | < 4.70 | < 4.70 | 4.70 to 5.00 |  |
| CCN(CC)Cc1oc(-c2ccccc2)cc1C(=O)Nc1cccc(S(N)(=O)=O)c1 [Compound 9] | 5.00 to 5.70 | 5.00 to 5.70 | 5.00 to 5.70 |  |
| Cc1ccc(OCc2occc2C(=O)Nc2cccc(S(N)(=O)=O)c2)cc1 [Compound 10] | < 4.70 |  | < 4.70 |  |
| Cc1oc(CC(C)C)c(CN2CCCC2)c1C(=O)Nc1cccc(S(N)(=O)=O)c1 [Compound 11] | 4.70 to 5.00 | 4.70 to 5.00 | 5.00 to 5.70 |  |
| Cc1oc(CC(C)C)c(CN2CCCCC2)c1C(=O)Nc1cccc(S(N)(=O)=O)c1 [Compound 12] | 4.70 to 5.00 | 5.00 to 5.70 | 5.00 to 5.70 |  |
| Cc1oc(C(C)(C)C)c(CO)c1C(=O)Nc1cccc(S(N)(=O)=O)c1 [Compound 13] | 4.70 to 5.00 | > 5.70 | 4.70 to 5.00 |  |
| Cc1coc(C)c1C(=O)Nc1cccc(S(N)(=O)=O)c1 [Compound 14] | < 4.70 | < 4.70 | < 4.70 |  |
| Cc1oc(C(C)(C)C)cc1C(=O)Nc1cccc(S(N)(=O)=O)c1 [Compound 18] | 4.70 to 5.00 | > 5.70 | 4.70 to 5.00 |  |
| NS(=O)(=O)c1cccc(NC(=O)c2cc(-c3ccc(Cl)cc3)cs2)c1 [Compound 19] | 4.70 to 5.00 |  |  |  |
| NS(=O)(=O)c1cc(NC(=O)c2cc(-c3cccc(Cl)c3)oc2C(F)(F)F)ccc1Cl [Compound 20] | < 4.70 |  |  |  |
| NS(=O)(=O)c1cccc(NC(=O)c2cccnc2Oc2ccc(Cl)cc2)c1 [Compound 21] | < 4.70 | < 4.70 |  |  |
| CC(C)(C)c1ccc(C(=O)Nc2cccc(S(N)(=O)=O)c2)cn1 [Compound 22, 6-tert-Butyl-N-(3-(aminosulfonyl)phenyl)pyridine-3-carboxamide] | < 4.70 | 4.70 to 5.00 | < 4.70 |  |
| CC(C)(C)c1nnc(C(=O)Nc2cccc(S(N)(=O)=O)c2)s1 [Compound 23, 5-tert-Butyl-N-(3-sulfamoylphenyl)-1,3,4-thiadiazole-2-carboxamide] | < 4.70 | < 4.70 | < 4.70 |  |
| Cc1nc(C(C)(C)C)sc1C(=O)Nc1cccc(S(N)(=O)=O)c1 [Compound 24] | < 4.70 |  | < 4.70 |  |
| Cc1oc(C(C)(C)C)nc1C(=O)Nc1cccc(S(N)(=O)=O)c1 [Compound 25] | < 4.70 | 4.70 to 5.00 | 4.70 to 5.00 |  |
| CC(C)(C)c1nc(C(=O)Nc2cccc(S(N)(=O)=O)c2)n(Cc2ccccc2)n1 [Compound 26, 5-tert-Butyl-2-benzyl-N-(3-(aminosulfonyl)phenyl)-2H-1,2,4-triazole-3-carboxamide] | < 4.70 | 4.70 to 5.00 |  |  |
| Cn1nc(C(C)(C)C)nc1C(=O)Nc1cccc(S(N)(=O)=O)c1 [Compound 27] | < 4.70 |  |  |  |
| NS(=O)(=O)c1cccc(NC(=O)c2ccc(-c3cccc(C(F)(F)F)c3)o2)c1 [Compound 29] | 5.00 to 5.70 |  | 4.70 to 5.00 |  |
| NS(=O)(=O)c1cccc(NC(=O)c2cc(-c3ccccc3)on2)c1 [Compound 30] |  |  | 4.70 to 5.00 |  |
| COc1ccc(-c2cc(C(=O)Nc3cccc(S(N)(=O)=O)c3)on2)cc1 [Compound 31] |  |  | < 4.70 |  |
| COc1cccc(-c2cc(C(=O)Nc3cccc(S(N)(=O)=O)c3)no2)c1 [Compound 32] |  |  | < 4.70 |  |
| NC1=N[C@H](O)[C@H]2[C@H]3O[C@]4(O)O[C@@H]([C@@H](O)[C@@]2(N1)[C@@H]4O)[C@]3(O)CO [TTX, tetrodotoxin] |  |  |  | pIC50 (NaV1.6): 8.22; pIC50 (NaV1.3 [3]): 7.82; pIC50 (NaV1.2): 8.00; pIC50 (NaV1.9): 6.00; pIC50 (NaV1.8 [4]): < 4.30; pIC50 (NaV1.1): 8.00 |
